Counter-ions that a name gives are not always drawn.
Experiments:
[1] = biological target: T1, NLRP3 (Homo sapiens, UniProt Q96P20); test: THP-1 cells pyroptosis assay (LPS + nigericin, resazurin read-out); format: cell-based; design: Seed THP-1 cells (25,000 cells/well) containing 1.0 μg/ml LPS; host or cells: THP-1 cells
Experimental: THP-1 cells (ATCC #TIB-202) were grown in RPMI containing L-glutamine (Gibco #11835) supplemented with 1 mM sodium pyruvate (Sigma #S8636) and penicillin (100 units/ml)/streptomycin (0.1 mg/ml) (Sigma #P4333) in 10% Fetal Bovine Serum (FBS) (Sigma #F0804). The cells were routinely passaged and grown to confluency (˜10^6 cells/ml). On the day of the experiment, THP-1 cells were harvested and resuspended into RPMI medium (without FBS). The cells were then counted and viability (>90%) checked by Trypan blue (Sigma #T8154). Appropriate dilutions were made to give a concentration of 625,000 cells/ml. To this diluted cell solution was added LPS (Sigma #L4524) to give a 1 μg/ml Final Assay Concentration (FAC). 40 μl of the final preparation was aliquoted into each well of a 96-well plate. The plate thus prepared was used for compound screening.
The following method step-by-step assay was followed for compound screening. • 1. Seed THP-1 cells (25,000 cells/well) containing 1.0 μg/ml LPS in 40 μl of RPMI medium (without FBS) in 96-well, black walled, clear bottom cell culture plates coated with poly-D-lysine (VWR #734-0317) • 2. Add 5 μl compound (8 points half-log dilution, with 10 μM top dose) or vehicle (DMSO 0.1% FAC) to the appropriate wells • 3. Incubate for 3 hrs at 37° C., 5% CO2 • 4. Add 5 μl nigericin (Sigma #N7143) (FAC 5 μM) to all wells • 5. Incubate for 1 hr at 37° C., 5% CO2 • 6. At the end of the incubation period, spin plates at 300×g for 3 mins and remove supernatant • 7. Then add 50 μl of resazurin (Sigma #R7017) (FAC 100 μM resazurin in RPMI medium without FBS) and incubate plates for a further 1-2 hrs at 37° C. and 5% CO2 • 8. Plates were read in an Envision reader at Ex 560 nm and Em 590 nm • 9. IC50 data is fitted to a non-linear regression equation (log inhibitor vs response-variable slope 4-parameters)

[2] = biological target: T1, NLRP3; test: Human whole blood IL-1β release assay (LPS + nigericin, AlphaLisa); format: cell-based; design: Plate out 80 μl of whole blood containing 1 μg/ml of LPS; from tissue; host or cells: human whole blood from healthy donors
Experimental: For systemic delivery, the ability to inhibit NLRP3 when the compounds are present within the bloodstream is of great importance. For this reason, the NLRP3 inhibitory activity of a number of compounds in human whole blood was investigated in accordance with the following protocol.
Human whole blood in Li-heparin tubes was obtained from healthy donors from a volunteer donor panel. • 1. Plate out 80 μl of whole blood containing 1 μg/ml of LPS in 96-well, clear bottom cell culture plate (Corning #3585) • 2. Add 10 μl compound (8 points half-log dilution with 10 μM top dose) or vehicle (DMSO 0.1% FAC) to the appropriate wells • 3. Incubate for 3 hrs at 37° C., 5% CO2 • 4. Add 10 μl nigericin (Sigma #N7143) (10 μM FAC) to all wells • 5. Incubate for 1 hr at 37° C., 5% CO2 • 6. At the end of the incubation period, spin plates at 300×g for 5 mins to pellet cells and remove 20 μl of supernatant and add to 96-well v-bottom plates for IL-1β analysis (note: these plates containing the supernatants can be stored at −80° C. to be analysed at a later date) • 7. IL-1β was measured according to the manufacturer protocol (Perkin Elmer-AlphaLisa IL-1 Kit AL220F-5000) • 8. IC50 data is fitted to a non-linear regression equation (log inhibitor vs response-variable slope 4-parameters)

[3] = THP-1 cells, 1 μg/ml LPS, 5 μM nigericin, NLRP3 inhibitory activity, read-out: THP IC50
[4] = human whole blood, 1 μg/ml LPS, 10 μM nigericin, IL-1β release, read-out: HWB IC50

T1 sequence (Q96P20 whole entry): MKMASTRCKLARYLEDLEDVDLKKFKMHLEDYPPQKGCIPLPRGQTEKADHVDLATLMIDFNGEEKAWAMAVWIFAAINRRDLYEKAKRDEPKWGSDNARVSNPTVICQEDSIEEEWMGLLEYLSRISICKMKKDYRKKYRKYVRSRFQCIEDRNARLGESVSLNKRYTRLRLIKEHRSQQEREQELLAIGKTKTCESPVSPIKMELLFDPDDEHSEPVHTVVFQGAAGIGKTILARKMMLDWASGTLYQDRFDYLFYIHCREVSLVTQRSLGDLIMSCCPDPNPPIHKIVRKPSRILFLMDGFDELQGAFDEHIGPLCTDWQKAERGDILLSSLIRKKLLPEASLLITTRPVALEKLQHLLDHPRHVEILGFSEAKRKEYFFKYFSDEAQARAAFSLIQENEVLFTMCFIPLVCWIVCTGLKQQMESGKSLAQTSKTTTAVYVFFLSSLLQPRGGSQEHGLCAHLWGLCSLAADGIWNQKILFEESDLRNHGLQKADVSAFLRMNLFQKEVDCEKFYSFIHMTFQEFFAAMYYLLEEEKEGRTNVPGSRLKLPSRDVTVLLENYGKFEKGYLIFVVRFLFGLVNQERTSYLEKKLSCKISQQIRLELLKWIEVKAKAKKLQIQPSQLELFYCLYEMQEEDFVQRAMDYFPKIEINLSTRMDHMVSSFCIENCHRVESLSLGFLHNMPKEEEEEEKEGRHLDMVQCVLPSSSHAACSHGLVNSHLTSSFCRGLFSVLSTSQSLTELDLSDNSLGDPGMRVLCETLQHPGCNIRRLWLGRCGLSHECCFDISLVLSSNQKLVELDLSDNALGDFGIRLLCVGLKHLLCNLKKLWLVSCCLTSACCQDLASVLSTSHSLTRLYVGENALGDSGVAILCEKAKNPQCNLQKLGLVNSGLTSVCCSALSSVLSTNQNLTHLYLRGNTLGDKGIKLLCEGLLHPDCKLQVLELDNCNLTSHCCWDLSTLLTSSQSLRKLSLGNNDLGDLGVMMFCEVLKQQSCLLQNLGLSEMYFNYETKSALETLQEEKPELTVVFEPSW

SMILES	IC50 [1, 3]	IC50 [2, 4]	IC50 [1]	IC50 [2]
CCN(CC)CCNS(=O)(=O)NC(=O)Nc1c2c(cc3c1CCC3)CCC2 [Example 40, 3-(N-(2-(Diethylamino)ethyl)sulfamoyl))-1-(1,2,3,5,6,7-hexahydro-s-indacen-4-yl)urea, potassium salt]	< 1000 nM	< 500 nM	–	–
CN1CCC(NS(=O)(=O)NC(=O)Nc2c3c(cc4c2CCC4)CCC3)C1 (stereo not shown) [Example 44, 3-(N-(1-Methylpyrrolidin-3-yl))sulfamoyl)-1-(1,2,3,5,6,7-hexahydro-s-indacen-4-yl)urea, potassium salt]	< 1000 nM	< 500 nM	–	–
C#CCCC1(CCNS(=O)(=O)NC(=O)Nc2c3c(cc4c2CCC4)CCC3)N=N1 [Example 45, 3-(N-(2-(3-(but-3-yn-1-yl)-3H-diazirin-3-yl)ethyl))sulfamoyl)-1-(1,2,3,5,6,7-hexahydro-s-indacen-4-yl)urea, potassium salt]	< 500 nM	< 10000 nM	–	–
O=C(Nc1c2c(cc3c1CCC3)CCC2)NS(=O)(=O)N1CC(N2CCC2)C1 [Example 46, N-((1,2,3,5,6,7-Hexahydro-s-indacen-4-yl)carbamoyl)-[1,3′-biazetidine]-1′-sulfonamide, potassium salt]	< 1000 nM	< 5000 nM	–	–
CCN1CCC1CNS(=O)(=O)NC(=O)Nc1c2c(cc3c1CCC3)CCC2 (stereo not shown) [Example 47, 3-(N-((1-Ethylazetidin-2-yl)methyl)sulfamoyl)-1-(1,2,3,5,6,7-hexahydro-s-indacen-4-yl)urea, potassium salt]	< 1000 nM	< 1000 nM	–	–
CCN(CC)C1CCN(S(=O)(=O)NC(=O)Nc2c3c(cc4c2CCC4)CCC3)C1 (stereo not shown) [Example 49, 3-(3-((Diethylamino)pyrrolidine)-1-sulfamoyl)-1-(1,2,3,5,6,7-hexahydro-s-indacen-4-yl)urea, potassium salt]	< 500 nM	< 500 nM	–	–
CC(C)N1CCC1CNS(=O)(=O)NC(=O)Nc1c2c(cc3c1CCC3)CCC2 (stereo not shown) [Example 50, 3-(N-((1-Isopropylazetidin-2-yl)methyl)sulfamoyl)-1-(1,2,3,5,6,7-hexahydro-s-indacen-4-yl)urea, potassium salt]	< 500 nM	< 500 nM	–	–
CN(C)CCN(CCCc1ccccc1)S(=O)(=O)NC(=O)Nc1c2c(cc3c1CCC3)CCC2 [Example 58, 3-(N-(2-(Dimethylamino)ethyl)-N-(3-phenylpropyl)sulfamoyl)-1-(1,2,3,5,6,7-hexahydro-s-indacen-4-yl)urea, potassium salt]	< 500 nM	< 5000 nM	–	–
CCN1CC2CCC(C1)N2S(=O)(=O)NC(=O)Nc1c2c(cc3c1CCC3)CCC2 [Example 62, 3-Ethyl-N-((1,2,3,5,6,7-hexahydro-s-indacen-4-yl)carbamoyl)-3,8-diazabicyclo[3.2.1]octane-8-sulfonamide, potassium salt]	< 500 nM	< 1000 nM	–	–
CC(C)n1cc(NS(=O)(=O)NC(=O)Nc2c3c(cc4c2CCC4)CCC3)cn1 [Example 65, 3-(N-(1-Isopropyl-1H-pyrazol-4-yl)sulfamoyl)-1-(1,2,3,5,6,7-hexahydro-s-indacen-4-yl)urea, potassium salt]	< 500 nM	< 5000 nM	–	–
O=C(Nc1c2c(cc3c1CCC3)CCC2)NS(=O)(=O)N1CCC(N2CCCC2)C1 (stereo not shown) [Example 72, N-((1,2,3,5,6,7-Hexahydro-s-indacen-4-yl)carbamoyl)-[1,3′-bipyrrolidine]-1′-sulfonamide, potassium salt]	< 500 nM	< 500 nM	–	–
O=C(Nc1c2c(cc3c1CCC3)CCC2)NS(=O)(=O)N1CCC(N2CCC2)C1 (stereo not shown) [Example 73, 3-(Azetidin-1-yl)-N-((1,2,3,5,6,7-hexahydro-s-indacen-4-yl)carbamoyl)pyrrolidine-1-sulfonamide, potassium salt]	< 1000 nM	< 5000 nM	–	–
O=C(Nc1c2c(cc3c1CCC3)CCC2)NS(=O)(=O)N1CC2CCC(C1)N2C1CC1 [Example 75, 8-Cyclopropyl-N-((1,2,3,5,6,7-hexahydro-s-indacen-4-yl)carbamoyl)-3,8-diazabicyclo[3.2.1]octane-3-sulfonamide, potassium salt]	–	–	< 500 nM	< 5000 nM
CN1CC[C@H](N(C)S(=O)(=O)NC(=O)Nc2c3c(cc4c2CCC4)CCC3)C1 [Example 76, 3-((S)—N-Methyl-N-(1-methylpyrrolidin-3-yl)sulfamoyl)-1-(1,2,3,5,6,7-hexahydro-s-indacen-4-yl)urea, potassium salt]	< 500 nM	< 500 nM	–	–
CN1CCCC1CN(C)S(=O)(=O)NC(=O)Nc1c2c(cc3c1CCC3)CCC2 (stereo not shown) [Example 80, 3-(N-Methyl-N-((1-methylpyrrolidin-2-yl)methyl)sulfamoyl)-1-(1,2,3,5,6,7-hexahydro-s-indacen-4-yl)urea, potassium salt]	< 500 nM	< 500 nM	–	–

More lines, main results first:

IC50 [1, 3]	IC50 [2, 4]	SMILES	IC50 [1]	IC50 [2]
< 500 nM	< 1000 nM	CC(C)N1CC2CCC(C1)N2S(=O)(=O)NC(=O)Nc1c2c(cc3c1CCC3)CCC2 [Example 38, N-((1,2,3,5,6,7-Hexahydro-s-indacen-4-yl)carbamoyl)-3-isopropyl-3,8-diazabicyclo[3.2.1]octane-8-sulfonamide, potassium salt]	–	–
< 500 nM	< 1000 nM	CCN(CCN(C)C)S(=O)(=O)NC(=O)Nc1c2c(cc3c1CCC3)CCC2 [Example 39, 3-(N-(2-(Dimethylamino)ethyl)-N-ethylsulfamoyl))-1-(1,2,3,5,6,7-hexahydro-s-indacen-4-yl)urea, potassium salt]	–	–
< 500 nM	< 500 nM	CN1C[C@H]2C[C@@H]1CN2S(=O)(=O)NC(=O)Nc1c2c(cc3c1CCC3)CCC2 [Example 43, (1R,4R)—N-((1,2,3,5,6,7-Hexahydro-s-indacen-4-yl)carbamoyl)-5-methyl-2,5-diazabicyclo[2.2.1]heptane-2-sulfonamide, potassium salt]	–	–
< 500 nM	< 500 nM	CN1CCCC(NS(=O)(=O)NC(=O)Nc2c3c(cc4c2CCC4)CCC3)C1 (stereo not shown) [Example 52, 3-(N-(1-Methylpiperidin-3-yl)sulfamoyl)-1-(1,2,3,5,6,7-hexahydro-s-indacen-4-yl)urea, potassium salt]	–	–
< 500 nM	< 500 nM	CCN1C2CCC1CN(S(=O)(=O)NC(=O)Nc1c3c(cc4c1CCC4)CCC3)C2 [Example 61, 8-Ethyl-N-((1,2,3,5,6,7-hexahydro-s-indacen-4-yl)carbamoyl)-3,8-diazabicyclo[3.2.1]octane-3-sulfonamide, potassium salt]	–	–
< 500 nM	< 1000 nM	CN(C)CC1CCN(S(=O)(=O)NC(=O)Nc2c3c(cc4c2CCC4)CCC3)C1 (stereo not shown) [Example 68, potassium salt]	–	–
< 500 nM	< 1000 nM	CC(C)(C)NCCNS(=O)(=O)NC(=O)Nc1c2c(cc3c1CCC3)CCC2 [Example 71, 3-(N-(2-(tert-Butylamino)ethyl)sulfamoyl)-1-(1,2,3,5,6,7-hexahydro-s-indacen-4-yl)urea, potassium salt]	–	–
< 500 nM	< 500 nM	CN(C)CCCNS(=O)(=O)NC(=O)Nc1c2c(cc3c1CCC3)CCC2 [Example 81, 3-(N-(3-(Dimethylamino)propyl)sulfamoyl)-1-(1,2,3,5,6,7-hexahydro-s-indacen-4-yl)urea, potassium salt]	–	–

Reference: patent US12187702B2, “Sulfonamideurea compounds” (Inflazome Limited, priority 2018, dated 2025)
